pIC50, pKd: −log10 of the molar value. “Also recorded” adds a separate entry of the source.
Columns and labels:
water solubility = conditions: H2O
[1] = in vivo antinociception after i.c.v. administration; design: species or system mice; conditions: for A50 i.c.v.: antinociception
δ opioid receptor = δ opioid receptor (Homo sapiens, UniProt P41143); test: opioid receptor binding, δ receptor
μ opioid receptor = μ opioid receptor (Homo sapiens, UniProt P35372); test: opioid receptor binding, μ receptor
[2] = helicity by circular dichroism; assay type: physicochemical; conditions: for % α-helicity: CD, SDS micelles (30 mM), pH = 7.0, 18° C.
Procedure: Circular Dichroism. All of the circular dichroism experiments were carried out on Aviv Associates model 60DS using an Endcal Model RTE4DD water circulator as a temperature-control vehicle. The instrument was calibrated by using d-10-camphorsulphonic acid. The spectra were recorded between 200 and 250 nm by using the continuous mode with a 1.5 nm bandwidth, a three second response and a scan step of 0.5 nm in a cell with a path length of 0.1 cm. Three or five scans were accumulated and averaged for each spectrum. Glycopeptide stock solutions were prepared by weighing the required amount, using Cahn/Ventron Instruments Model 21 automatic analytical electrobalance, to make 1 mL of a 0.5-1.0 mM solution and the pH was adjusted to the desired value. Samples were prepared by diluting the stock solution to 70-80 μM. All observed spectra were baseline-subtracted and smoothed by adjacent average of 5 points using Microcal Origin Ver. 5.0 software (Microcal Software Inc, USA). The molar ellipticities were determined using the formula [θ]=[θ]obs·(MRW)/10·l·C, where [θ]obs observed ellipticity in millidegrees, MRW is the mean residue weight, l is the cell path length in centimeters and C is the glycopeptide concentration in mg/mL. The percent α-helicity was determined by using the formula % helix=[θ]n→π*/−40,000 (1−2.5/n)·100, where n represents the number of amide bonds (including the C-terminal amide) in the glycopeptide and [θ]n→π** is molar ellipticity of n→π* transition band at 222 nm.^55
Conformational Analysis by CD. Circular dichroism (CD) is a powerful and simple tool for identifying secondary structure in both peptides and proteins.^64 All the peptides were subjected to CD analysis in H2O, TFE-H2O mixtures, SDS micelles and phospholipid bicelles. In H2O, a negative band near 200 nm is observed that arises from the π→π* electronic transition and is typical of random coil peptides. […] This behavior is explained as nascent helices.^65 In these nascent helices, helix CD signals could be induced by the addition of TFE.^66 All the glycopeptides gave an increased helix CD signal in TFE. The percentage of helicity increases as TFE concentration increases, but reached a maximum at 30% TFE. The increase in helicity in TFE can be attributed to decreased competition by H2O for hydrogen bonding to the backbone amides. […] In the presence of SDS micelles and anionic bicelles, the band at 200 nm underwent a red shift (higher value) and an additional shoulder appears around 222 nm as a result of the n→π* transition. […] The negative maxima at 222 nm (n→π* transition band) is used to calculate the helical content of polypeptides and proteins. The accepted value for a peptide that is 100% helical is approximately −35,000. It was observed that changes in amplitude of the bands up to 30% depend on length of helix.^67 The amplitude increases as α-helical chain length increases. Therefore, one has to consider the importance of chain-length dependence of the α-helix CD in the quantitative treatment of helix content in proteins and polypeptides. The percentage of helicity is independent of SDS concentration and pH (data not shown). In the presence of zwitterionic bicelles all of the glycopeptides yielded CD spectra similar to that observed in H2O, but anionic bicelles forced them to become more helical. The intensities of the [θ]π→π* band and the [θ]n→π* band are expected to be almost equal for a perfect α-helical peptide. […] A modest blue shift and reduced intensity for the [θ]n→π* transition bands are observed for all the glycopeptides in TFE. […] The glycopeptides 9 (Pro/Glc) and 12 (Pro/Lactose), which differ only by the sugar moiety attached, adopt perfect helices in the presence of SDS micelles and in anionic bicelles. The disaccharide increased the percentage of helicity in all the solvents, relative to the monosaccharide. […] It is remarkable to note that a single amino acid mutation at position 6 produced profound changes in the CD spectra. […]

[3] = helicity by NMR αCH chemical shift index; assay type: physicochemical
Procedure: NMR Spectroscopy. All NMR spectra were recorded on a Bruker DRX600 600 MHz spectrometer. Glycopeptide concentration for the NMR experiments varied from 2-3 mM. The glycopeptides were prepared in TFE-water solution by dissolving the peptide in 0.6 ml solution of a premixed 30% TFE-water mixture. The micelle samples were prepared by dissolving the glycopeptide and 100 equivalent of perdeuterated SDS in 0.6 ml of H2O/D2O (9:1 ratio by volume). Bicelles were produced from deuterated phospholipids. The zwitterionic bicelles were made by mixing the short chain phospholipid dihexanoyl-sn-glycero-3-phosphatidylcholine-d22 (DHPC) and the long chain 1,2-dimyristoyl-sn-glycero-3-phosphatidylcholine-d54 (DMPC) in the molar ratio of 2:1 in H2O. The […] were prepared by substituting 10 mol % of 1,2-dimyristoyl-sn-glycero-3-phospho-1-glycerol-d54 (DMPG) for DMPC. The glycopeptide to bicelle ratio was 1:25. After the glycopeptide was added to the bicelle solution, the system was submitted to a series o f three freeze/thaw/slight vortex shaking cycles. The pH of the each sample was adjusted to 4.5 by using DCl or NaOD as necessary. TSP (3-(trimethylsilyl)-d4-propionic acid) was added as an internal standard. The experiments in F3CCD2OD/H2O mixtures were at 293 K and for experiments in micelles/bicelles were at 298 or 311 K. Two-dimensional double quantum filtered correlation (DQF-COSY), rotating-frame Overhauser enhancement^56 (ROESY), Nuclear Overhauser enhancement^57 (NOESY), and total correlation spectra^58 (TOCSY) were acquired using standard pulse sequences and processed using XWINNMR (Bruker Inc) and FELIX2000 (Accelrys Inc, San Diego, Calif.), Mixing times for TOCSY spectra were either 80 or 100 ms. Mixing times for ROESY spectra were 150 or 250 ms, and for NOESY spectra were 200 or 300 ms. All experiments were 750 increments in t1, 16/32/64 scans each, 1.5 s relaxation delay, size 2 or 4K, and the spectral processing was with shifted sine bell window multiplications in both dimensions.
αCH Chemical Shift Index. […] At this point there is no accepted random coil αCH values for glycosylated serine, CSI values for this position are uncertain. The conformational shift values for all solvents were obtained using the random coil values described by Wright and co-workers.^72 Although, these reference shifts were obtained at pH=5.0 at 4.2° C., they appear to be very insensitive to the conditions, as very small deviations (±0.04) were observed when random coil values are obtained at pH=7.0 at 35° C. by Wuthrich and co-workers.^68 The quantification of secondary structure based on αCH chemical shifts is neglected in the literature because various contributions cannot be strictly accounted for, such as electrostatic effects, ring current shifts, and other magnetic anisotropies. However, it is possible to make qualitative comparison of helical content between closely related (glyco)peptides. Since the 3rd generation glycopeptides differ by only one amino acid at position 6, the helical content was obtained based on the αCH chemical shift values (Table 3). The method described by Gierasch and co-workers^69a was used. First, the average conformational shift was calculated for each glycopeptide by adding all upfield shifts in the helical regions and dividing by the total number of peptide bonds. Then, to obtain the overall helical content for each glycopeptide, the average conformational shift was divided by 0.35 ppm, which was assigned for 100% helicity. Since, there are no random coil values available for β-Alanine and glycosylated serine residues, they were not included in the calculation. The helicogenic Aib residue lacks an α-proton, and there was no correction included in the calculation for the helicity provided by Aib residue. The helical content obtained by this method correlated with the helical content obtained by CD. […]

[4] = Plasmon-waveguide resonance (PWR) binding to lipid bilayer; conditions: egg PC bilayer, 25° C., read-out: dissociation constant KD for lipid bilayer
Procedure: Plasmon-waveguide resonance (PWR) spectroscopy. The PWR instrument used for these experiments was Aviv Beta prototype version device obtained from Proterion Corp. (Piscataway, N.J.) having a spectral resolution of 1 millidegree. Self-assembled so lid-supported lipid membranes were prepared according to the method used for the formation of freely suspended lipid bilayers.^62 This involves spreading a small amount of lipid solution across an orifice in a Teflon sheet that separates the thin dielectric film (SiO2) from the aqueous phase. The hydrophilic surface of hydrated SiO2 attracts the polar groups of the lipid molecules, thus inducing an initial orientation of the lipid molecules, with the hydrocarbon chains pointing toward the droplet of excess lipid solution. The next steps of bilayer formation, induced by adding aqueous buffer to the sample compartment of the PWR cell, involve a thinning process and the formation of a plateau-Gibbs border of lipid solution that anchors the membrane to the Teflon spacer. In the present experiments, the lipid films were formed from a solution containing 5 mg/ml egg phosphatidylcholine (PC) in squalene/butanol/methanol (0.05:9.5:0.5, v/v). […] Aliquots of the glycosylated peptides, dissolved in deionized water, were injected stepwise in the PWR cell sample and the signal monitored until equilibrium was reached (PWR signal steady). […]

[5] = blood-brain barrier uptake / penetration; conditions: mice

Sequence of δ opioid receptor (P41143 whole entry): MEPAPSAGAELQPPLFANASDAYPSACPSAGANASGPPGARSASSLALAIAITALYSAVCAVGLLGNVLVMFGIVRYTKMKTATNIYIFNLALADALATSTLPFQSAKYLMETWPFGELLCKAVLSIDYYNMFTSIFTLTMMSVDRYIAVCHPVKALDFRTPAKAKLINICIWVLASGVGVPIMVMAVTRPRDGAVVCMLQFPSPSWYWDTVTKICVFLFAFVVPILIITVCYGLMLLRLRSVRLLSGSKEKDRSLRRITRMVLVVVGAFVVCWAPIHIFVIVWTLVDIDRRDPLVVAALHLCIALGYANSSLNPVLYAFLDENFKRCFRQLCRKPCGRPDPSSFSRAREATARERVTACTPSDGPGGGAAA
Sequence of μ opioid receptor (P35372 whole entry): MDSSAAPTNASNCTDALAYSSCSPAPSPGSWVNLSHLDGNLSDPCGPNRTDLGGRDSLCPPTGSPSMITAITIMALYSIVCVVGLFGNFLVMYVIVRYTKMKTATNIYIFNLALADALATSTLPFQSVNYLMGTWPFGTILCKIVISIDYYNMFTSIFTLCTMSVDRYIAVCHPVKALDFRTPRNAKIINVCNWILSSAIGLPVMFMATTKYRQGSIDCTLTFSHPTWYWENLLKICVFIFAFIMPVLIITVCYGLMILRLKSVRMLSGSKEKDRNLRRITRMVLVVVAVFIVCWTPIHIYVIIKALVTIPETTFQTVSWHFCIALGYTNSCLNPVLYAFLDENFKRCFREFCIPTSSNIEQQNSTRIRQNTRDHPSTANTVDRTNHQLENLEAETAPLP

| Structure (SMILES) | water solubility (water solubility) | A50 i.c.v. ([1]; i.c.v., mice) | pIC50 (δ opioid receptor) | pIC50 (μ opioid receptor) | % α-helicity [2] | further results |
| --- | --- | --- | --- | --- | --- | --- |
| CC(C)C[C@H](NC(=O)[C@H](C)NC(=O)[C@H](CC(N)=O)NC(=O)[C@H](Cc1ccccc1)NC(=O)[C@H](Cc1c[nH]c2ccccc12)NC(=O)[C@H](CCCCN)NC(=O)[C@H](CO[C@@H]1O[C@H](CO)[C@@H](O)[C@H](O)[C@H]1O)NC(=O)[C@H](C)NC(=O)[C@H](CC(C)C)NC(=O)[C@H](CCC(=O)O)NC(=O)CNC(=O)[C@H](CC(C)C)NC(=O)[C@H](Cc1ccccc1)NC(=O)CNC(=O)[C@H](NC(=O)[C@@H](N)Cc1ccc(O)cc1)[C@H](C)O)C(=O)N[C@@H](CCC(=O)O)C(=O)N[C@@H](CO[C@@H]1O[C@H](CO)[C@@H](O)[C@H](O)[C@H]1O)C(N)=O (relative stereo) [Glycopeptide 2, YtGFLGELAS*KWFNALES*] | appreciable water solubility; also recorded: significant solubility in water | 0.27 nmol | 8.02 | 6.84 | 67% | potency relative to morphine ([1]; i.c.v. administration, more potent than morphine): roughly 18 times; A50 value after i.c.v. administration ([1]; i.c.v., mice): 120 pmoles per mouse; receptor selectivity (in words) (δ opioid receptor; δ versus μ, receptor binding assays): somewhat δ-selective |
| CC(C)C[C@H](NC(=O)[C@H](CO[C@@H]1O[C@H](CO)[C@@H](O)[C@H](O)[C@H]1O)NC(=O)[C@H](CCCCN)NC(=O)[C@H](CC(C)C)NC(=O)[C@H](C)NC(=O)[C@H](CCCCN)NC(=O)[C@H](CCC(=O)O)NC(=O)C(C)(C)NC(=O)[C@H](CC(C)C)NC(=O)[C@H](CC(N)=O)NC(=O)CNC(=O)CNC(=O)[C@H](CC(C)C)NC(=O)[C@H](Cc1ccccc1)NC(=O)CNC(=O)[C@H](NC(=O)[C@@H](N)Cc1ccc(O)cc1)[C@H](C)O)C(N)=O (relative stereo) [Glycopeptide 11, YtGFLGGNLBEKALKS*L] | – | 0.030 nmol | 7.49 | 7.28 | – | % α-helicity by NMR ([3]; solvent H2O): 19%; % α-helicity by NMR ([3]; solvent SDS micelles): 39%; % α-helicity by NMR ([3]; solvent TFE): 28%; pKd [4]: 4.52; BBB uptake [5]: 0.002 microliters per min per gram of cortex; blood brain barrier penetration (in words) [5]: did not; also recorded: low BBB penetration rates; % α-helicity by CD ([2]; solvent Bicelle A (anionic bicelles)): 17%; % α-helicity by CD ([2]; solvent H2O): >1%; % α-helicity by CD ([2]; solvent SDS micelles): 17%; % α-helicity by CD ([2]; solvent TFE): 18% |
| CC(C)C[C@H](NC(=O)[C@H](C)NC(=O)[C@H](CC(N)=O)NC(=O)[C@H](Cc1ccccc1)NC(=O)[C@H](Cc1c[nH]c2ccccc12)NC(=O)[C@H](CCCCN)NC(=O)[C@H](CO[C@@H]1O[C@H](CO)[C@@H](O)[C@H](O)[C@H]1O)NC(=O)[C@H](C)NC(=O)[C@H](CC(C)C)NC(=O)[C@H](CCC(=O)O)NC(=O)CNC(=O)[C@H](CC(C)C)NC(=O)[C@H](Cc1ccccc1)NC(=O)CNC(=O)[C@H](NC(=O)[C@@H](N)Cc1ccc(O)cc1)[C@H](C)O)C(=O)N[C@@H](CCC(=O)O)C(N)=O (relative stereo) [Glycopeptide 1, YtGFLGELAS*KWFNALE] | H2O insoluble | – | – | – | 85% | – |
| CC(C)C[C@H](NC(=O)[C@H](C)NC(=O)[C@H](CC(N)=O)NC(=O)[C@H](Cc1ccccc1)NC(=O)[C@H](Cc1c[nH]c2ccccc12)NC(=O)[C@H](CCCCN)NC(=O)[C@H](CO[C@@H]1O[C@H](CO)[C@@H](O)[C@H](O)[C@H]1O)NC(=O)[C@H](C)NC(=O)[C@H](CC(C)C)NC(=O)[C@H](CCC(=O)O)NC(=O)CNC(=O)[C@H](CC(C)C)NC(=O)[C@H](Cc1ccccc1)NC(=O)CNC(=O)[C@H](NC(=O)[C@@H](N)Cc1ccc(O)cc1)[C@H](C)O)C(=O)N[C@@H](CCC(=O)O)C(=O)N[C@@H](CO[C@@H]1O[C@H](CO)[C@@H](O)[C@H](O)[C@H]1O)C(=O)N[C@@H](Cc1ccccc1)C(N)=O (relative stereo) [Glycopeptide 3, YtGFLGELAS*KWFNALES*F] | H2O insoluble | – | – | – | 65% | – |
| CC(C)C[C@H](NC(=O)[C@H](C)NC(=O)[C@H](CC(N)=O)NC(=O)[C@H](Cc1ccccc1)NC(=O)[C@H](Cc1c[nH]c2ccccc12)NC(=O)[C@H](CCCCN)NC(=O)[C@H](CO[C@@H]1O[C@H](CO)[C@@H](O)[C@H](O)[C@H]1O)NC(=O)[C@H](C)NC(=O)[C@H](CC(C)C)NC(=O)[C@H](CCC(=O)O)NC(=O)CNC(=O)[C@H](CC(C)C)NC(=O)[C@H](Cc1ccccc1)NC(=O)CNC(=O)[C@H](NC(=O)[C@@H](N)Cc1ccc(O)cc1)[C@H](C)O)C(=O)N[C@@H](CCC(=O)O)C(=O)N[C@@H](CO[C@@H]1O[C@H](CO)[C@@H](O)[C@H](O)[C@H]1O)C(=O)N[C@@H](Cc1ccccc1)C(=O)N[C@@H](Cc1c[nH]c2ccccc12)C(N)=O (relative stereo) [Glycopeptide 4, YtGFLGELAS*KWFNALES*FW] | H2O insoluble | – | – | – | 82% | – |

— patent publication US7803764B2, “Amphipathic glycopeptides” (The Arizona Board of Regents on Behalf of the University of …, priority 2004, dated 2010)
